# Experimental data taken from publication PMC4210147, “Sequence-Specific Dimerization of a Transmembrane Helix in Amphipol A8-35” (PLoS ONE, 2014).
# Columns and labels:
# [1] = Far-UV circular dichroism, secondary structure content of GpA TM domain; assay type: physicochemical; conditions: 25°C; for α-helix content: unlabeled GpA peptide 5 µM, DICHROWEB CDSSTR, reference set 7, at least three averaged scans
# Description: CD spectra were recorded on a Jasco J-815 spectropolarimeter at 25°C in a step-scan mode using 0.1-cm path length quartz cells from Hellma (Mülheim, Germany). The concentration of unlabeled GpA peptide was 5 µM. Data points were collected at a resolution of 1 nm, an integration time of 1 s, and a bandwidth of 1 nm. Each shown spectrum results from at least three averaged scans from which buffer scans were subtracted. The measured ellipticity θ was converted to molar ellipticity [θ] by: [drawing 8] (5) where M is the molar mass, L the path length, and C the peptide concentration.
# The GpA TM domain was reconstituted in 10 mM phosphate buffer (pH 7.4) containing A8-35 as well as in several solvents containing SDS, DDM, or pure TFE, which are known to stabilize α-helical structures. Prior to CD measurements, samples were treated in the same way as described above for FRET measurements. Secondary structure contents were estimated with the DICHROWEB software, [31] using both soluble and TM proteins as reference datasets (CDSSTR method, reference set 7).
# human GpA TM domain [2] = molecular target: T1, human GpA TM domain (Homo sapiens, UniProt P02724); assay: Steady-state FRET, GpA TM helix dimerization in A8-35; assay type: binding; conditions: n = 3; for dimer fraction (in words): pH 7.4, 25°C
# T1 construct: purchased Peptide Specialty Laboratories, Heidelberg, Germany; host or cells: chemical synthesis (custom peptide)
# T1 sequence (P02724 88-120 limits assumed) 1: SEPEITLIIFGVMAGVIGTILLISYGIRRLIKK
# T1 sequence (P02724 88-120 limits assumed) 2: T1 sequence (P02724 88-120 limits assumed) 1
# Excerpt: Peptides corresponding to residues 69–101 of the human GpA TM domain ([…]) were custom-synthesized and labeled at the N-terminus with either the donor or the acceptor dyes fluorescein (FL) and 5-6-carboxyrhodamine (TAMRA), respectively (Peptide Specialty Laboratories, Heidelberg, Germany). The purity of the labelled peptides was confirmed by high-performance liquid chromatography (HPLC) and mass spectrometry. Based on this, the labeled peptides used in this study were>95% pure. Peptides were dissolved in 2,2,2-trifluoroethanol purchased from Sigma-Aldrich (Munich, Germany). APol A8-35 was purchased from Affymetrix (Santa Clara, USA) and sodium dodecyl sulfate (SDS) from Roth (Karlsruhe, Germany). N-dodecyl-β-D-maltopyranoside (DDM) was obtained from Sigma-Aldrich (Munich, Germany).
# (§1) For Förster resonance energy transfer (FRET) measurements, equal concentrations of FL- and TAMRA-labeled GpA TM domains were used. Concentrations of the peptide stock solutions were determined from absorbance measurements on a Perkin Elmer Lambda 35 UV/VIS spectrophotometer. In all experiments, we used 0.25 µM for each of the two labeled GpA peptides. Peptides dissolved in TFE and A8-35 dissolved in ethanol were mixed, and organic solvents were removed under a gentle stream of nitrogen gas. Residual solvent traces were removed by vacuum desiccation overnight. The dried peptide/polymer film was then hydrated in 10 mM HEPES buffer (pH 7.4) containing 150 mM NaCl.
# (§2) After at least 2 h of incubation at 37°C and 10 min of centrifugation at 16,000 g, steady-state fluorescence measurements were performed with the supernatant at 25°C on a Horiba Fluoromax 4 system with both excitation and emission slits at 3 nm. The excitation wavelength was set at 439 nm, and emission spectra were recorded from 480 to 650 nm. For FRET measurements with SDS, several concentrations of SDS, both below and above the CMC determined for the given buffer conditions, were used, and hydrated samples were incubated overnight.
# (§3) Energy transfer E was calculated using the donor fluorescence intensities at 525 nm in presence and absence of acceptor according to [drawing 1] (1)
# FD is the fluorescence intensity of the donor sample, and FDA is the fluorescence intensity of the sample containing donor and acceptor GpA TM domains at equal concentrations. The energy transfer of sequence-specific TM helix dimerization, ED, can be expressed as: [drawing 2] (2) where f D is the fraction of dimeric TM helices, P D is the probability of donor quenching when the peptides form a dimer, and E R is the energy transfer in the dimer.
# The probability P D of donor quenching depends on the molar ratio of the acceptor peptides [drawing 3] , where [a] and [d] are the concentrations of acceptor and donor peptides, respectively. If the distance of the fluorophores in the dimer is much smaller than the Förster radius, as is the case here, ER can be taken as unity.
# The fraction of dimers can be written as [drawing 4] , where [D] is the concentration of dimeric peptides and [T] the total peptide concentration.
# The dissociation constant, K D, is given by [drawing 6] (4) where the monomer concentration is [drawing 7] .
# human GpA TM domain [3] = molecular target: T1, human GpA TM domain; assay: FRET at different acceptor mole ratios, stoichiometry of GpA TM domain association; assay type: binding; conditions: constant total peptide, linear dependence, n = 2
# Description: as §1, with “For Förster resonance energy transfer (FRET) measurements, equal concentrations of FL- and TAMRA-labeled GpA TM domains were used.” left out, “In all experiments, we used 0.25 µM for each of the two labeled GpA peptides.” left out
# as §2, §3
# Besides formation of GpA dimers, the recorded energy transfer might, in principle, also originate from formation of higher-ordered oligomeric structures, such as trimers or tetramers, or even from unspecific peptide aggregation. […]
# GpA TM helix dimer = conditions: ref [24], listed as GpA dimer; cited from earlier work
# Excerpt: Thermal denaturation of MPs often leads to irreversible aggregation of the MP, and guanidine hydrochloride and urea, which are frequently used in unfolding studies involving soluble proteins, do typically not denature the TM regions of MPs. This is why the thermodynamic stability of integral MPs within membrane-mimetic systems is often assessed by titrating increasing concentrations of the anionic detergent SDS to MPs dissolved in a mild detergent, such as DDM [24], [40]-[44]. SDS is able to form mixed micelles with other detergents typically used for MP solubilization. […] This indicates a strong destabilizati ...
structure (smiles),measurement,setting,value
CC[C@H](C)[C@H](NC(=O)CNC(=O)[C@H](Cc1ccc(O)cc1)NC(=O)[C@H](CO)NC(=O)[C@@H](NC(=O)[C@H](CC(C)C)NC(=O)[C@H](CC(C)C)NC(=O)[C@@H](NC(=O)[C@@H](NC(=O)CNC(=O)[C@@H](NC(=O)[C@@H](NC(=O)CNC(=O)[C@H](C)NC(=O)[C@H](CCSC)NC(=O)[C@@H](NC(=O)CNC(=O)[C@H](Cc1ccccc1)NC(=O)[C@@H](NC(=O)[C@@H](NC(=O)[C@H](CC(C)C)NC(=O)[C@@H](NC(=O)[C@@H](NC(=O)[C@H](CCC(=O)O)NC(=O)[C@@H]1CCCN1C(=O)[C@H](CCC(=O)O)NC(=O)[C@@H](N)CO)[C@@H](C)CC)[C@@H](C)O)[C@@H](C)CC)[C@@H](C)CC)C(C)C)C(C)C)[C@@H](C)CC)[C@@H](C)O)[C@@H](C)CC)[C@@H](C)CC)C(=O)N[C@@H](CCCNC(=N)N)C(=O)N[C@@H](CCCNC(=N)N)C(=O)N[C@@H](CC(C)C)C(=O)N[C@H](C(=O)N[C@@H](CCCCN)C(=O)N[C@@H](CCCCN)C(=O)O)[C@@H](C)CC [GpA TM domain],α-helix content,"[1]; 5 µM A8-35, 10 mM phosphate buffer pH 7.4",67%
same,effect of higher APol concentrations on peptide's secondary structure,"[1]; A8-35 concentrations above 5 µM, CD, 5 µM peptide",did not significantly affect the peptide's secondary structure
same,α-helix content,[1]; in 5 mM DDM,79%
same,α-helix content,[1]; in 5 mM SDS,76%
same,α-helix content,[1]; in TFE (pure),62%
same,dimer fraction,"human GpA TM domain [2]; 25 µM A8-35, FL- and TAMRA-labeled GpA 0.25 µM each, 10 mM HEPES pH 7.4, 150 mM NaCl, incubated at least 2 h at 37°C, measured at 25°C",about 0.65
same,GpA dimer dissociation at relatively higher A8-35 concentrations,"human GpA TM domain [2]; A8-35 range 5 to 75 µM, in contrast to detergents",do not seem to fully dissociate the GpA dimer
same,dimer fraction (in words),"human GpA TM domain [2]; above 25 µM A8-35 (to 75 µM), FL- and TAMRA-labeled GpA 0.25 µM each",decreased only faintly with increasing polymer concentrations
same,dimer fraction (in words),"human GpA TM domain [2]; low A8-35 concentrations (range 5 to 75 µM), FL- and TAMRA-labeled GpA 0.25 µM each",Almost all peptides were dimeric
same,Kd,"human GpA TM domain [2]; tested A8-35 range 5 to 75 µM, total labeled peptide 0.5 µM, 10 mM HEPES pH 7.4, 150 mM NaCl, 25°C, read-out: apparent dissociation constant K_D of GpA TM dimer",< 0.3 µM
same,stoichiometry of association (energy transfer vs acceptor mole fraction),human GpA TM domain [3]; 5 µM A8-35,exclusive dimer formation
same,stoichiometry of association (energy transfer vs acceptor mole fraction),human GpA TM domain [3]; 50 µM A8-35,exclusive dimer formation
same,dissociation of GpA dimer in mixed DDM/SDS micelles,GpA TM helix dimer,completely unfolded
